# Test results as given in paper PMC8485799, “Synthesis and Antiprotozoal Profile of 3,4,5‐Trisubstituted Isoxazoles” (ChemistryOpen, 2021).
# Read-outs that look alike come from different tables or passages of the source.
# What was measured:
# [1] = Cytotoxicity assay in mammalian cells (MTT), fibroblasts, 72 h; assay type: cell-based; details: mouse, pH 7.2, 50 % inhibition of fibroblast growth, 72 h, MTT
# Protocol: (§1) The antiproliferative activity was determined in promastigote forms of Leishmania amazonensis (WHOM/BR/75/JOSEFA strain) and epimastigote forms of Trypanosoma cruzi (Y strain). The promastigote forms of L. amazonensis were cultured in Warren medium (brain heart infusion, hemin, and folic acid; pH 7.4) supplemented with 10 % fetal bovine serum (FBS) at 25 °C. The epimastigote forms of T.cruzi were cultured in LIT medium (liver infusion tryptose; hemin, and folic acid; pH 7.4) supplemented with 10 % FBS at 28 °C. Cytotoxicity in mammalian cells was determined in fibroblast line (L929) and macrophages (J774 A1). Fibroblasts were cultured in DMEM medium (pH 7.2) supplemented with 10 % FBS at 37 °C in a 5 % CO2 atmosphere. Macrophages were cultured in RPMI‐1640 (pH 7.2) medium supplemented with 10 % FBS at 37 °C in a 5 % CO2 atmosphere.
# (§2) Stock solutions of the compounds were prepared in DMSO and then diluted in the respective medium.
# (§3) Fibroblast cell (2.5×10^5 cells.mL^−1) suspensions were prepared in DMEM medium supplemented with 10 % FBS and added to 96‐well plates. Then, the plates were incubated at 37 °C in a CO2 atmosphere for 24 h to obtain confluent cell growth. After incubation, cells were treated with different concentrations of compounds diluted in DMEM for 72 h or left untreated. Macrophage (5×10^5 cells.mL^−1) suspensions were prepared in RPMI‐1640 medium supplemented with 10 % FBS and added to 96‐well plates. Then, the plates were incubated at 37 °C in a CO2 atmosphere for 24 h to obtain confluent cell growth. After incubation, cells were treated with different concentrations of compounds diluted in RPMI‐1640 for 48 h or left untreated. After treatment, the medium was removed, and cells were incubated with MTT (2 mg.mL^−1) for 4 h. Then, DMSO was added for solubilization of the formazan and analyzed with a reading microplate reader (BIO‐TEK PowerWave XS spectrophotometer) at […].[20] The percentage of viable cells was calculated in relation to the untreated control group to determine the cytotoxic concentration in 50 % of the cells (CC50). The control groups of each experiment received the same experimental conditions as the treated groups (cell concentration used, temperature, CO2, and incubation time).
# [2] = Cytotoxicity assay in mammalian cells (MTT), macrophages, 48 h; assay type: cell-based; details: mouse, pH 7.2, 50 % inhibition of macrophages growth, 48 h, MTT
# Protocol: as §1, §2, §3
# [3] = system: promastigote forms of Leishmania amazonensis (WHOM/BR/75/JOSEFA strain); assay: Antiproliferative assay (XTT), promastigote forms, 72 h; assay type: cell-based; details: for IC50: Leishmania amazonensis, 72 h, read-out: L. amazonensis IC50; for SIL-F, selectivity index (Fibroblast CC50/L. amazonensis IC50): fibroblast vs promastigote; for SIL-M, selectivity index (Macrophages CC50/L. amazonensis IC50): macrophages vs promastigote
# Protocol: as §1, §2
# (§4) Promastigote forms (1×10^6 parasites.mL^−1) were cultured in 96‐well plates in the presence and absence of different concentrations of compounds diluted in Warren medium supplemented with 10 % FBS and incubated for 72 h. The epimastigote forms (1×10^6 parasites.mL^−1) were cultured in 96‐well plates in the presence and absence of different concentrations of compounds diluted in LIT medium supplemented with 10 % FBS and incubated for 96 h. After treatment, the parasites were incubated with a solution of 2,3‐bis(2‐methoxy‐4‐nitro‐5‐sulfophenyl)‐2H‐tetrazolium‐5‐carboxanilide (XTT; 0.5 mg.mL^−1) and phenazine methanesulfonate activator (PMS; 0.06 mg.mL^−1) in PBS for 4 h. Then, the absorbance was read in a microplate reader (Bio Tek‐Power Wave XS) at 450 nm.[20] The percentage of viable parasites was calculated in relation to the control in order to determine the concentration that inhibits 50 % of the protozoa (IC50). The control groups of each experiment received the same experimental conditions as the treated groups (cell concentration used, temperature, and incubation time).
# [4] = system: epimastigote forms of Trypanosoma cruzi (Y strain); assay: Antiproliferative assay (XTT), epimastigote forms, 96 h; assay type: cell-based; details: for IC50: Trypanosoma cruzi, 96 h, read-out: T. cruzi IC50; for SIT-F, selectivity index (Fibroblast CC50/T. cruzi IC50): fibroblast vs epimastigote; for SIT-M, selectivity index (Macrophages CC50/T. cruzi IC50): macrophages vs epimastigote
# Protocol: as §1, §2, §4
Compound,melting point [°C],CC50 at 72 h ([1]; L929 fibroblast cells) [µM],CC50 at 48 h ([2]; J774 A1 macrophages) [µM],"IC50 ([3]; promastigote form, XTT) [µM]","SIL-F, selectivity index (Fibroblast CC50/L. amazonensis IC50) [3]","SIL-M, selectivity index (Macrophages CC50/L. amazonensis IC50) [3]","IC50 ([4]; epimastigote form, XTT) [µM]","SIT-F, selectivity index (Fibroblast CC50/T. cruzi IC50) [4]","SIT-M, selectivity index (Macrophages CC50/T. cruzi IC50) [4]",CC50 at 72 h [1] [µM],CC50 at 48 h [2] [µM],IC50 [3] [µM],IC50 [4] [µM],"Selectivity index (SI), overall ([3]; span over both cell lines (fibroblast, macrophages) and both parasites (L. amazonensis, T. cruzi))"
NNC(=O)c1noc(-c2ccccc2)c1CNc1ccccc1 [3 ba],151.3 to 152.4,189 ± 9,110 ± 5.6,34.9 ± 2.9,5.41,3.16,39.5 ± 5.6,4.78,2.79,,,,,
NNC(=O)c1noc(-c2ccccc2)c1CNc1ccc(Cl)cc1 [3 bb],190.6 to 191.6,,,,8.07,6.48,,7.38,5.93,288 ± 9.9,231 ± 8.1,35.7 ± 6,39 ± 7.1,
COc1ccc(NCc2c(C(=O)NN)noc2-c2ccccc2)cc1 [3 bc],132.2 to 135.4,190 ± 3.7,186 ± 6.1,12.4 ± 1.7,15.35,14.97,15 ± 0.8,12.69,12.38,,,,,greater than 14
NNC(=O)c1noc(-c2ccc(F)cc2)c1CNc1ccccc1 [3 ca],174 to 175,198 ± 5,174 ± 8.1,20.3 ± 0.9,,8.57,22.8 ± 1.7,10.25,7.63,,,,,
NNC(=O)c1noc(-c2ccc(F)cc2)c1CNc1ccc(Cl)cc1 [3 cb],178.1 to 181.2,802 ± 11.4,694 ± 10.7,172 ± 10.4,4.67,4.04,> 200,,,,,,,
COc1ccc(NCc2c(C(=O)NN)noc2-c2ccc(F)cc2)cc1 [3 cc],171.1 to 173.6,166 ± 9.6,150 ± 4.4,59.2 ± 5.7,2.80,2.53,65.3 ± 3.6,2.54,2.29,,,,,
NNC(=O)c1noc(-c2ccc(Cl)cc2)c1CNc1ccccc1 [3 da],202.8 to 205.6,305 ± 11.4,257 ± 6.8,23.1 ± 1.5,13.21,11.12,27.9 ± 2.3,10.93,9.20,,,,,
NNC(=O)c1noc(-c2ccc(Cl)cc2)c1CNc1ccc(Cl)cc1 [3 db],175.9 to 177.8,381 ± 4.2,336 ± 5.1,59.1 ± 4.6,6.44,5.68,55.7 ± 10.2,6.84,6.03,,,,,
COc1ccc(NCc2c(C(=O)NN)noc2-c2ccc(Cl)cc2)cc1 [3 dc],157 to 158.8,310 ± 8.9,210 ± 3.5,55.8 ± 3.9,5.55,3.76,49.5 ± 2.9,6.25,4.24,,,,,
"O=C(N/N=C/c1ccccc1)c1noc(-c2ccc([N+](=O)[O-])cc2)c1CNc1ccccc1 [4 aa, 3‐[(2E)‐N'‐(Benzylidene)hydrazinecarbonyl]‐4‐(phenyl)aminomethyl‐5‐(4‐nitrophenyl)isoxazole]",92.6 to 94.4,118 ± 7.3,100 ± 6,40.7 ± 3.2,2.90,2.47,35.1 ± 4.6,,2.86,,,,,
O=C(N/N=C/c1ccccc1)c1noc(-c2ccc([N+](=O)[O-])cc2)c1CNc1ccc(Cl)cc1 [4 ab],177.6 to 179,398 ± 6.9,287.4 ± 2.3,133 ± 8.8,3.01,2.18,147 ± 10.7,2.71,1.96,,,,,
O=C(N/N=C/c1ccccc1)c1noc(-c2ccccc2)c1CNc1ccccc1 [4 ba],169.9 to 172,409 ± 7.8,385.6 ± 3.2,76.8 ± 8.7,5.32,5.02,69.6 ± 3.9,5.87,5.54,,,,,
O=C(N/N=C/c1ccccc1)c1noc(-c2ccccc2)c1CNc1ccc(Cl)cc1 [4 bb],188.4 to 190.1,322 ± 9.7,305 ± 7.4,27.8 ± 0.7,11.57,10.98,27 ± 1.1,11.91,11.30,,,,,
COc1ccc(NCc2c(C(=O)N/N=C/c3ccccc3)noc2-c2ccccc2)cc1 [4 bc],197.6 to 199.6,210 ± 4.7,176 ± 6.6,21.5 ± 0.8,9.75,8.20,26.7 ± 3.9,7.85,6.61,,,,,
O=C(N/N=C/c1ccccc1)c1noc(-c2ccc(F)cc2)c1CNc1ccccc1 [4 ca],157.7 to 159.6,814 ± 13.5,784 ± 10.6,135 ± 11.4,6.04,5.83,149 ± 10.3,5.47,5.29,,,,,
O=C(N/N=C/c1ccccc1)c1noc(-c2ccc(F)cc2)c1CNc1ccc(Cl)cc1 [4 cb],167.9 to 170.5,381 ± 6.9,365 ± 8.7,87.3 ± 6.4,4.37,4.18,98.7 ± 10.1,3.86,3.69,,,,,
